Results reported in the NIST ThermoML archive (doi:10.1021/je030168a).

Experiments:
[1] = Liquid
[2] = excess molar enthalpy (molar enthalpy of mixing); xn = mol fraction of the nth substance listed; conditions: 298.15 K, 101.3 kPa, Liquid, Flow calorimetry

CCCCBr [1-bromobutane]
[1]
Conditions	vapor or sublimation pressure [kPa]
278.15 K	1.86
283.15 K	2.48
288.15 K	3.265
293.15 K	4.261
298.15 K	5.506
303.15 K	7.039
308.15 K	8.899
313.15 K	11.15
318.15 K	13.87
323.15 K	17.09

CCCCBr [1-bromobutane] + CCCCCCCCO
[2]
Conditions	excess molar enthalpy [kcal/mol]
x2 = 0.025	0.087
x2 = 0.0571	0.144
x2 = 0.1224	0.201
x2 = 0.1949	0.233
x2 = 0.2361	0.244
x2 = 0.276	0.25
x2 = 0.3205	0.253
x2 = 0.367	0.252
x2 = 0.4661	0.24
x2 = 0.5784	0.212
x2 = 0.7064	0.165
x2 = 0.8484	0.0956
x2 = 0.9311	0.0488

CCCCCCCCCCO [decan-1-ol]
[1], Closed cell (Static) method
Conditions	vapor or sublimation pressure [kPa]
308.15 K	0.001
313.15 K	0.004
318.15 K	0.007
323.15 K	0.011

CCCCCCCCO [octan-1-ol]
[1]
Conditions	vapor or sublimation pressure [kPa]
288.15 K	0.001
293.15 K	0.003
298.15 K	0.007
303.15 K	0.011
308.15 K	0.019
313.15 K	0.031
318.15 K	0.051
323.15 K	0.08
